Laboratory results taken from patent publication US20240300943A1, “NOVEL SALTS OF HETEROCYCLIC COMPOUND AS PROTEIN KINASE INHIBITOR AND USES THEREOF” (HK INNO.N CORPORATION, priority 2021, published 2024).

Legend:
RBL-2H3 cells = assay: IL-4 secretion inhibitory activity in Basophil cells; type: cell-based; details: FIG. 8
Description: RBL-2H3 cells were diluted in 10% FBS EMEM medium and divided in a 24-well plate to reach 1×10^5 cells/well. The cells were incubated in a 37° C. incubator for 18 hours or longer.
The test material (Compound 1) was treated at each concentration (at a final concentration of 0, 0.1, 0.5 and 1 μM) under PMA (50 nmol/L) and A23187 (1 μmol/L) stimulation. The cells were incubated in a 37° C. incubator for 24 hours. Then, the reaction was terminated on ice, after the degree of IL-4 secretion in the culture supernatant was measured by IL-4 ELISA kit.

JAK1, Tyk2 = assay: Human whole blood assay, JAK1, Tyk2; type: cell-based; details: cytokine-induced STAT phosphorylation
Description: A stock solution of Compound 1 obtained according to Preparation Example 1 was diluted with distilled water and then serially diluted at ⅕ with 4% DMSO. 5 μL of test material was added to 100 μL of whole blood collected using a 1.7 mL eppendorf tube, mixed, and incubated at 37° C. for 45 minutes.
IL-6 (10 μg/ml) was diluted with 0.1% BSA/DW to reach 1 μg/mL each. 5 μL of IL-6 was added (at a final concentration of 50 ng/mL) and incubated at 37° C. for 15 minutes. At this time, 5 μL of DPBS was added as a non-stimulated control group. Lyse/fix buffer 5× was diluted 1× in distilled water and used. […]
For double staining of CD4 and pSTATI, anti-[…] and anti-pSTATI were mixed in a staining buffer and added to each of the samples. […] On the next day, the results were analyzed using FACSCanto II. […]
The numerical values analyzed by FlowJo were calculated to obtain IC50 values using GraphPad Prism 5 software (product name).
No treatment response (NTR) was set as a reference, and the degree of the phosphorylation of STAT induced by cytokines was converted into a relative ratio (% control group). A dose-response plot was obtained for each concentration-dependent activity of each test material using GraphPad Prism (version 5.0) and ICso values were calculated.

[1] = tested on: anti-CD3 and anti-CD28-activated PBMC of patients with atopic dermatitis; assay: IL-13, IL-10 and TNF-α secretion in activated PBMC of atopic patients; type: cell-based, human; details: 100 nM and 1,000 nM, 24 hours, FIG. 9
Description: 50 μL of DNase I (2000 unit/mL) was added to 50 mL of cell culture medium and mixed. (Since enzyme and cells were used, the medium was heated in a 37° C. water bath before use.) In addition, PMBC of atopic patients was rapidly dissolved in a 37° C. water bath.
PMBC was slowly flowed into the prepared medium, and reacted at 37° C. for five minutes. Centrifugation was performed using a centrifuge at 200 rpm for 15 minutes, after which supernatants were removed, suspended in 1 mL of cell culture medium, and counted.
Cells were diluted in cell culture medium and seeded in a 96-well plate to reach 2×10^5 cells/100 μL/well.
50 μL of PBMC activation medium (0.5 μg/ml CD3 antibody, 5 μg/ml CD28 antibody) was added to every well except the negative control well. (50 μL of cell culture medium was added to each negative control well.)
50 μL of the test material was added to each well according to each concentration. (final concentration of 1 nM, 10 nM, 100 nM, 1,000 nM, 50 μL of cell culture medium was added to each negative control well.)
After incubation in a 5% CO2 incubator at 37° C. for 24 hours, the plates were centrifuged at 200 rpm for 15 minutes as they were, and 150 μL of the suspension was taken, placed in a 96-well round bottom plate, and stored in a deep freezer at minus 80° C.
After the culture supernatant samples were dissolved, ELISA was performed according to the data sheet protocol of ELISA kit.

JAK2 = JAK2 (Homo sapiens, UniProt O60674); assay: ADP-Glo JAK2 kinase assay; type: biochemical; details: read-out: IC50, In vitro enzyme JAK2
Description: 10 mM of Compound 1 was diluted in DMSO to prepare samples at four concentrations (5,000 nM, 500 nM, 50 nM and 5 nM). 10 mM of ATP was diluted at 1/40 in 1× kinase buffer to make a preparation. 1 mg/mL of IGFIRtide was used as a stock solution. 100 ng/μL of JAK2 enzyme was diluted at 1/20 in 1× kinase buffer to make a preparation. 1 μL of ATP, 1 μL of IGFIRtide, and 1 μL of Compound 1 prepared as above were mixed, after which 2 μL of JAK2 enzyme was finally added and reacted at 30° C. for 40 minutes. At this time, a tube without JAK2 enzyme was prepared as a blank and a tube without Compound 1 was prepared as a positive control group together (a final concentration of samples was 1,000 nM, 100 nM, 10 nM, and 1 nM).
Then, 5 μL of ADP-glo was added to each tube and reacted at 30° C. for 40 minutes, after which 10 μL of kinase detection reagent was added thereto and reacted at room temperature for 15 minutes. After 18 μL of the reactant was transferred to a 384 well plate, luminescence was measured using a plate reader.

Sequence of JAK2 (O60674 whole entry, species assumed): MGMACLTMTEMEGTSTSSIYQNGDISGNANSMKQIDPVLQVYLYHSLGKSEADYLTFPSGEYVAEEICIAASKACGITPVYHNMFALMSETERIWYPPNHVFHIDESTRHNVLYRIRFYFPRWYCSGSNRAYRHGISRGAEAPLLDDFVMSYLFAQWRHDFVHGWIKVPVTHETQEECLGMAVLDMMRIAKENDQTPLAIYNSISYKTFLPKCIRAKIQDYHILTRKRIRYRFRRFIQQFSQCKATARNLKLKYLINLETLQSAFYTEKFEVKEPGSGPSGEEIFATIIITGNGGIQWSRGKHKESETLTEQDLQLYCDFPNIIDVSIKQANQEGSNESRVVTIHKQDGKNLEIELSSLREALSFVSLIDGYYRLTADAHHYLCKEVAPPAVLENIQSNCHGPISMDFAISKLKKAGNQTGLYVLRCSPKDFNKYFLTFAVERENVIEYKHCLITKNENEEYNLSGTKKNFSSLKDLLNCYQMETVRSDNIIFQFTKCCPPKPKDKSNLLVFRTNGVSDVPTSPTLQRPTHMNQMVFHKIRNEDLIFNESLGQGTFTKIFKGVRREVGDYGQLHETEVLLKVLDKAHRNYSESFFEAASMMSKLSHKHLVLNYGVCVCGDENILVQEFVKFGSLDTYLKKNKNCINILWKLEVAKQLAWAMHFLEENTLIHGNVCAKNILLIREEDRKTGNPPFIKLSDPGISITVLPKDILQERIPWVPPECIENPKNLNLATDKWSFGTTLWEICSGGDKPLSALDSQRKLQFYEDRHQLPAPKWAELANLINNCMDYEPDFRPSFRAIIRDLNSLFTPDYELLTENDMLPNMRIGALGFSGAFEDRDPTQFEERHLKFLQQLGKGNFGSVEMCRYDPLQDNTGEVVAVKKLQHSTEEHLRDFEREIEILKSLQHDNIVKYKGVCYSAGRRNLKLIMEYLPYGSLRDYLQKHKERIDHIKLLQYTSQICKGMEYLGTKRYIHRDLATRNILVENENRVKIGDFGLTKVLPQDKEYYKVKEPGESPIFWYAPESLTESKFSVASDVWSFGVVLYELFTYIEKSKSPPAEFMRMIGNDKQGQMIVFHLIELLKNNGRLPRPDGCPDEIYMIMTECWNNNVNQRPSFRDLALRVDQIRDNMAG

IC50 (JAK1, Tyk2): 168 nM
IC50 (JAK2): 68 nM
SMILES: C[C@@H]1CN(C(=O)CC#N)CC=C1c1cc(NC(=O)C2CC2)nc2[nH]ccc12 [Compound 1, (S)—N-(4-(1-(2-cyanoacetyl)-3-methyl-1,2,3,6-tetrahydropyridin-4-yl)-1H-pyrrolo[2,3-b]pyridin-6-yl)cyclopropanecarboxamide]
IL-4 concentration compared to the negative control group (vehicle) (RBL-2H3 cells; 0.5 μM and 1 μM): remarkably reduced to almost ½ or more
IL-4 secretion (RBL-2H3 cells; RBL-2H3 cells, PMA and A23187 stimulation, 24 hours): inhibits IL-4 secretion
IL-10 secretion [1]: significantly reduced
IL-13 secretion [1]: significantly reduced
TNF-α secretion [1]: significantly reduced
